Measurements as given in ChEMBL document CHEMBL3507680, “University of Dundee, Gates Library screen for HepG2 cell viability”.

Test: Human HepG2 cell viability assay in 384 well format
Type: toxicity, cell-based
Set-up: dose 125 nL, time 70.5 hour; concentration not given beside the values
Details: HepG2 cells, read-out: Inhibition

Row | Compound | cytotoxicity at 70.5 h
1 | CCC(CNS(C)(=O)=O)Oc1ccccc1C (configuration not stated) | -3.25%
2 | CCCC(NC(=O)c1cnccn1)c1nnc2ccccn12 (configuration not stated) | -11%
3 | Cc1ncccc1O[C@H]1CCN(C(=O)c2cccs2)CC[C@@H]1O | -14.1%
4 | O=C(c1ccc(N2CCCC2)nc1)N1CCCC(c2nccs2)C1 (configuration not stated) | -20.6%
5 | CCC(C)NC(=O)CS(=O)(=O)Cc1cc(Cl)ccc1OC (configuration not stated) | -12%
6 | N#Cc1ccc(S(=O)(=O)NC(=O)C2CC(c3ccccc3)=NO2)cc1 (configuration not stated) | -12.1%
7 | COc1ccccc1[C@@H]1CN(Cc2cnc(N(C)C)nc2)C[C@H]1C(=O)O | -6.22%
8 | O=C(NC1COC2(CCN(Cc3ccccn3)CC2)C1)c1ccccn1 (configuration not stated) | 3.59%
9 | CN(Cc1cccnc1)C1CC2(CCN(c3ncc(F)cn3)CC2)C1 | -5.89%
10 | O=C(Cn1cc(Cl)cn1)N1CCCC(c2cc3ccccc3cn2)C1 (configuration not stated) | 23.4%
11 | Cc1ccc(Nc2nccc(C3CCN(C(=O)CO)C3)n2)nc1 (configuration not stated) | -11.2%
12 | CNc1cc(C2CCCN2S(=O)(=O)c2cccc(F)c2)ccn1 (configuration not stated) | 14.1%
13 | CC(NCc1ccccc1O)c1ccc(-n2ccnc2)cc1 (configuration not stated) | 26.4%
14 | CCc1nnc2n1CCN(C(=O)Cc1csc(-c3ccco3)n1)C2 | -15.6%
15 | Cc1noc(C)c1CNCc1ccccc1N(C)C1CCN(C)CC1 | -4.38%
16 | CC(C1CCN(Cc2cnc(-c3cccs3)nc2)CC1)N(C)C (configuration not stated) | 28.9%
17 | COCC(=O)N[C@@H]1CN(Cc2c[nH]nc2-c2cccs2)C[C@H]1O | -2.93%
18 | Cc1nc(N2CCN3CCCCC3C2)nc2cc(S(C)(=O)=O)ccc12 (configuration not stated) | 0.525%
19 | CCOCC1CN(Cc2ccoc2)Cc2nn(C)cc21 (configuration not stated) | -4.9%
20 | CC1=C(CCN2C[C@H](O)[C@@H](N3CCOCC3)C2)C(C)(C)CCC1 | -8.76%
21 | CNC(=O)C1(c2cnccn2)CCCN1C(=O)c1cccc(C)n1 (configuration not stated) | -5.53%
22 | COc1cccc([C@H]2CN(C(=O)c3noc4c3CCCC4)C[C@@H]2N)c1 | -3.29%
23 | CC(C)n1cc(CN2CCCN(C(=O)c3ccc[nH]3)CC2)cn1 | -5.05%

Row | Compound | cytotoxicity at 70.5 h
24 | Cc1ccc(OCCN(C)S(=O)(=O)N2CCOCC2)cc1 | -0.648%
25 | COCCN1CC[C@]2(CN(Cc3cccnc3)C[C@H]2C)C1=O | -10.8%
26 | CC(C)COc1cncc(NCc2nnc3ccccn23)n1 | -3.83%
27 | CCNC(=O)c1nc2c(s1)CCCN2S(C)(=O)=O | 28.7%
28 | CC(C)(C)c1nc(CNc2cc3c(cc2Cl)NC(=O)CO3)no1 | -7.93%
29 | COC(=O)[C@@H]1Cc2ncn(C)c2CN1S(=O)(=O)c1ccc(Cl)cc1 | 10.2%
30 | COc1ccc(C2CC(=O)Oc3cc(C)[nH]c(=O)c32)cc1O (configuration not stated) | -19.6%
31 | CN(C)C1CCCN(C(=O)NCc2ccccc2-n2cccn2)C1 (configuration not stated) | 10.5%
32 | O=C1OCCN1CC(=O)N1C[C@H]2CC[C@@H]1CN(C(=O)c1ccccn1)C2 | -7.06%
33 | Cc1cc(C)cc(NC(=O)CC2CN(Cc3ccccc3)CCO2)c1 (configuration not stated) | -4.17%
34 | C=Cn1cc(CN2CCN(CC3(c4ccccc4)CC3)CC2)c(C)n1 | -2.78%
35 | Cc1cccc(CC(=O)NC2CCN(C(=O)NC(C)(C)C)CC2)c1 | 12.2%
36 | CC1CN(C(=O)CN(Cc2ccco2)C2CC2)CCO1 (configuration not stated) | -10.6%
37 | Cc1nc(CCNC(=O)C2CC(=O)N(C(C)C)C2)cs1 (configuration not stated) | 32.3%
38 | Cc1ncccc1Oc1nccnc1C1CCN(C(C)C)CC1 | -2.72%
39 | COCCCN1CC2(CCCN(c3ncnc4[nH]cnc34)C2)CCC1=O (configuration not stated) | -6.06%
40 | CCCNCc1ccc(-c2cc(N)nc3[nH]ccc23)cc1 | -0.725%
41 | COCC(O)CNc1cncc(Br)c1 (configuration not stated) | -2.5%
42 | O=C(NCc1cc(O)ncn1)C1COc2ccccc2C1 (configuration not stated) | -8.68%
43 | COCc1ccccc1C(=O)NS(=O)(=O)CCCC#N | -3.12%
44 | Cc1nn(C)c(Cl)c1C(=O)NCC1(C(N)=O)CCOCC1 | -11.7%
45 | CC(C)n1[nH]c(=O)c2c1NC(=O)CC2c1cccc2cccnc12 (configuration not stated) | 15.8%
46 | O=C(O)C1CN(Cc2cccc(-c3ccccn3)c2)CCO1 (configuration not stated) | -9.06%

Row | Compound | cytotoxicity at 70.5 h
47 | Cc1ccc(F)cc1S(=O)(=O)NCc1cccnc1N(C)C | -10.3%
48 | Cc1ccc(N2CCCC(NC(=O)Nc3cnn(C)c3)C2=O)cc1 (configuration not stated) | 9.02%
49 | O=C(c1cnccn1)N1CCCC2(CCN(c3ccccn3)C2)C1 (configuration not stated) | 19.3%
50 | CS(=O)(=O)NCC1CCCN(Cc2ccc(F)c3cccnc23)C1 (configuration not stated) | -12.2%
51 | CCn1c(C)nnc1CN(C)C1CCN(Cc2ccon2)C1 (configuration not stated) | -1.86%
52 | COc1nc2c(cc1C(=O)NCc1noc(-c3ccco3)n1)CCC2 | -7.17%
53 | COCCN1CCCC(c2nccnc2Nc2nc(C)cs2)C1 (configuration not stated) | -4.96%
54 | CC(C(=O)N1CCN(Cc2ccncc2)CC1)n1cncn1 (configuration not stated) | -4.9%
55 | Cc1nc(O)c2nnn(C[C@H]3CCCN3C(=O)C3CCCC3)c2n1 | -4.22%
56 | CS(=O)(=O)N1CCCC(C(=O)N2CCOc3ccccc32)C1 (configuration not stated) | -14.4%
57 | O=C(NCC1CCCO1)c1cc(-c2ccc3c(c2)CCO3)n[nH]1 (configuration not stated) | 16.6%
58 | Cc1nn(C2CCCCC2)c2nc(C(C)(C)CN3CCOCC3)[nH]c12 | -6.99%
59 | O=C(Cc1ccc(F)cc1F)NCC(=O)Nc1ccccn1 | -5.81%
60 | COC(=O)N1CC(C)=C(C)CN1C(=O)Nc1cccc(Cl)c1 | 0.501%
61 | CCC(C)N1CCC(Oc2ccc(C(=O)NCCN(C)C)cc2Cl)CC1 (configuration not stated) | -5.39%
62 | c1cncc(COCc2n[nH]c3c2CN(Cc2ccco2)C3)c1 | -1.5%
63 | CC(=O)N1CCC2(CC1)CN(C(=O)c1ccc3c(c1)OCCO3)C2 | 5.66%
64 | O=S(=O)(NCCn1cc(C2CCOC2)nn1)c1ccc(Cl)cc1 (configuration not stated) | 17.5%
65 | Cn1cnc(NC(=O)C2CC(=O)N(c3cccc(F)c3)C2)n1 (configuration not stated) | 18.3%
66 | Cc1ccc(C(=O)NCC2(O)CCOCC2)cc1F | -1.08%
67 | Cc1c[nH]nc1C1CCCN1Cc1ncc[nH]1 (configuration not stated) | -2.22%
68 | CN(C)c1ncc2c(n1)C1(CCN(Cc3ccccc3)C1)COC2 (configuration not stated) | -5.25%
69 | CCOCCN1CCN(CCCS(C)(=O)=O)CC1C (configuration not stated) | 11.8%

Row | Compound | cytotoxicity at 70.5 h
70 | COc1c(C2CCCN2C(=O)c2sc(C)nc2C)c(C)nn1C (configuration not stated) | 10.6%
71 | Cc1c(NCc2cccnc2)cccc1C(=O)N1CCC(N(C)C)C1 (configuration not stated) | -5.39%
72 | O=C1CN(C(=O)C2CN(c3cccc(F)c3)CCO2)CCN1 (configuration not stated) | -5.92%
73 | CC(=O)c1c(O)n(C)c2ccc(F)cc12 | -4.46%
74 | C[C@@H](NCc1cccc(Cl)c1)c1onc(-c2ccc(F)cc2)c1C(=O)O | -2.58%
75 | COc1ccc2c(c1)NC(C1CCN(C(=O)C(C)C)CC1)NS2(=O)=O (configuration not stated) | -3.05%
76 | Cc1ccc(F)c(NCc2ccc(C(=O)N(C)C)[nH]2)c1 | -3.46%
77 | COCC(NC(=O)c1ccoc1C)c1cccc(C(F)(F)F)c1 (configuration not stated) | -2.1%
78 | Cc1noc([C@@H]2CC[C@@H]3[C@@H](CCN3c3nnc(C)s3)O2)n1 | -8.18%
79 | Cc1cc(C)nc(C2CCN(C3CCOCC3)C2)n1 (configuration not stated) | -11.5%
80 | Cc1nc(C)n(CCCn2ccnc2-c2cc3n(n2)CCCNC3)n1 | -11%
81 | Cc1noc(C)c1-c1nc(C2CCCNC2)ccc1CO (configuration not stated) | -5.83%
82 | CN(C)Cc1csc(-c2nccn2Cc2ccsc2)c1 | 3.09%
83 | O=C(CN1CCOC1=O)N1CCc2nnc(-c3ccccc3)n2CC1 | 11.7%
84 | c1cncc(COCc2nnc3n2CCN(Cc2cccs2)C3)c1 | 12.3%
85 | CCOCCN1CCN(Cc2nnc(C3CC3)o2)CC1 | -2.06%
86 | c1csc(N2CCCN(Cc3noc(C4CC4)n3)CC2)n1 | -11.8%
87 | CC(C)[C@@H]1CN(c2ccc(C(F)(F)F)cn2)C[C@H]1NS(C)(=O)=O | 21.5%
88 | Cc1ccc2c(c1)c(CNC(=O)C1CC(=O)N(C3CC3)C1)nn2C (configuration not stated) | -4.12%
89 | Cc1ccc2oc(N3CCN(CC(=O)NC(C)C)CC3)nc2c1 | 10.6%
90 | CN1C(=O)C(C)(C)COc2cc(NS(=O)(=O)c3ccccc3F)ccc21 | 16.6%
91 | CN(Cc1ccco1)C(=O)C1CSCN1C(=O)c1cccs1 (configuration not stated) | 12.5%
92 | CCOCC1CN(S(=O)(=O)C2CC2)Cc2cnn(C)c21 (configuration not stated) | 20%

Row | Compound | cytotoxicity at 70.5 h
93 | O=C(c1ccncc1F)N1CC2CC1(C(=O)N1CCCC1)C2 | -11.2%
94 | c1cncc(CN2CCO[C@@H]3CN(Cc4ccoc4)CC[C@@H]3C2)c1 | -7.13%
95 | COc1ccnc(N(C)Cc2ccccc2OC(F)(F)F)n1 | -1.49%
96 | CCOCCNC(=O)c1cnc(Sc2nccn2C)c(Cl)c1 | 2.36%
97 | Cc1ncc(CN2CCN(C(=O)C3CCC3)[C@@H]3CS(=O)(=O)C[C@@H]32)cn1 | -16.2%
98 | COCCN1CCO[C@H]2CCN(C(=O)c3cccs3)CC[C@@H]21 | 5.33%
99 | CN1CCC(N[C@@H]2CO[C@H](CNC(=O)c3cccs3)[C@H]2O)CC1 | -6.9%
100 | CC(CNC(=O)NCc1ccoc1)N1CCc2sccc2C1 (configuration not stated) | 6.45%
101 | CCN(CC)Cc1cc(=O)n2c(n1)CN(C(=O)c1ccc[nH]1)CCC2 | -4.87%
102 | CNc1nc(C(=O)N2C[C@@H]3CCN(C)[C@@H]3C2)cs1 | -3.23%
103 | CN(C)C(=O)CN1CCC2(CC1)C[C@@H](O)[C@H](c1ccccc1)NC2=O | -8.01%
104 | NC(=O)CN1CCC(C(=O)NCCn2cc(Cl)cn2)CC1 | 3.62%
105 | O=C(CCn1cccn1)N1CCC(c2nnc(-c3ccccn3)o2)CC1 | 3.01%
106 | Cc1cc(C)n(-c2ccc(CNCc3ccc(F)cc3F)cn2)n1 | -11.6%
107 | CC(=O)N1C[C@H]2CCCN(Cc3ccc(C)o3)[C@H]2C1 | -10.5%
108 | O=C(c1ccc(-n2cnnc2)cc1)N1CCCC(n2ccnc2)C1 (configuration not stated) | -8.88%
109 | Cc1cccc2[nH]c(C3CCN(C(=O)c4cccnn4)CC3)nc12 | 16.6%
110 | Cc1c(C(=O)NC2(C#N)CCSC2)nnn1-c1ccccc1Cl (configuration not stated) | -5.68%
111 | Cc1cc(C(F)(F)F)n2nc(C3CCCN3C3CCSCC3)cc2n1 (configuration not stated) | -2.47%
112 | OCCN1CCc2[nH]nc(C(c3ccccc3)c3ccccc3)c2C1 | -7.95%
